The results in this text go back to ChEMBL document CHEMBL2029247, “Synthesis and structure-activity relationship of aminopyridines with substituted benzoxazoles as c-Met kinase inhibitors” (Bioorg Med Chem Lett, 2012).

The target in experiment [1] is Hepatocyte growth factor receptor (Homo sapiens, UniProt P08581). Kind of experiment: Inhibition of recombinant c-Met by time resolved-fluorescence resonance energy transfer analysis.
A short description of experiment [2]: cells. The note with it: Homo sapiens, Hs746T, 72 h.
Description: Cytotoxicity against human Hs 746T cells after 72 hrs by WST-8 assay
Experiment [3] deals with T1, Aurora kinase A (Homo sapiens, UniProt O14965).
T1 sequence (O14965 whole entry): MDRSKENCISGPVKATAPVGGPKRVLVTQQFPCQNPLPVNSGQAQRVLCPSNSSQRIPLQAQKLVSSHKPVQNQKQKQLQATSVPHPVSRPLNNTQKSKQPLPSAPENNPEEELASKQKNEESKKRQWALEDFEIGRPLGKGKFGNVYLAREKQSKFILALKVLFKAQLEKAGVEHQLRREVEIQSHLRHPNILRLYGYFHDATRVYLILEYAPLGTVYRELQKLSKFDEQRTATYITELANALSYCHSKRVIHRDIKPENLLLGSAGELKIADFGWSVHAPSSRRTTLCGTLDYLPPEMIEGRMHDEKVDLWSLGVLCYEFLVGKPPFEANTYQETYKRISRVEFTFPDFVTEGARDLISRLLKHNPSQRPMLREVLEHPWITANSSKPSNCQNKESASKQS
Kind of experiment: Inhibition of Aurora A.

The target in experiment [4] is Receptor-type tyrosine-protein kinase FLT3 (Homo sapiens, UniProt P36888, D835Y). Kind of experiment: Inhibition of FLT3 D835Y mutant.
Experiment [5] addresses T2, Receptor-type tyrosine-protein kinase FLT3 (Homo sapiens, UniProt P36888).
T2 sequence (P36888 whole entry): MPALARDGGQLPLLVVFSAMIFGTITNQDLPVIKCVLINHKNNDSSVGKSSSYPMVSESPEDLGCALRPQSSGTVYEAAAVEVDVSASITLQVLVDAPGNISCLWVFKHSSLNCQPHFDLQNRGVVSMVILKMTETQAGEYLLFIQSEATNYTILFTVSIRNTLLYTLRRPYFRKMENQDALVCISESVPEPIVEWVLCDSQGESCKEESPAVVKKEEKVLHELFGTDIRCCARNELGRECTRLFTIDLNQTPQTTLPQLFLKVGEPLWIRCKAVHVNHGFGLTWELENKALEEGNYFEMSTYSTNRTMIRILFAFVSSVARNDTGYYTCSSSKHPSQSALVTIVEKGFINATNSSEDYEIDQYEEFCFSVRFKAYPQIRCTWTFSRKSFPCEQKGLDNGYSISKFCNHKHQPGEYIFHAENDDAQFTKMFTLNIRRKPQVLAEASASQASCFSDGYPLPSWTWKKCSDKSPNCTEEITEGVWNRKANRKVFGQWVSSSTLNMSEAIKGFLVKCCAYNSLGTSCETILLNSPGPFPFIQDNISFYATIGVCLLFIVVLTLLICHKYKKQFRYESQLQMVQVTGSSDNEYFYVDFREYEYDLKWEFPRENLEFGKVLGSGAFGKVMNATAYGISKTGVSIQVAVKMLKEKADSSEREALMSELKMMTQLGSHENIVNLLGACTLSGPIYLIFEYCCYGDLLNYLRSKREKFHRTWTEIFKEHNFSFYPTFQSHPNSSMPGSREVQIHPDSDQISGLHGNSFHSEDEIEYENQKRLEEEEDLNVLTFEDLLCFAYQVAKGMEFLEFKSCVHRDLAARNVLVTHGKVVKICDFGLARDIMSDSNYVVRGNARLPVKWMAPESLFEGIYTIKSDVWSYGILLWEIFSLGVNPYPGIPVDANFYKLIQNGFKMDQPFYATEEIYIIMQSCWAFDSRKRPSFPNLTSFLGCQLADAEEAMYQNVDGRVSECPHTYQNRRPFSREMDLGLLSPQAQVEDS
Kind of experiment: Inhibition of recombinant FLT3 by time resolved-fluorescence resonance energy transfer analysis.

Experiment [6] deals with Macrophage-stimulating protein receptor (Homo sapiens, UniProt Q04912). Kind of experiment: Inhibition of Ron.

One may read the IC50 as the midpoint of a concentration-inhibition curve. Turning to `Nc1ncc(-c2cnn(C3CCNCC3)c2)cc1-c1nc2cc(Cl)ccc2o1`, the IC50 in experiment [1] turned out to be 53 nM.
On the same count and under the same terms, the figure for `Nc1ncc(-c2cnn(C3CCNCC3)c2)cc1-c1nc2cc(Cl)cc(F)c2o1` is 41 nM; for `CC(=O)c1ccc2nc(-c3cc(-c4cnn(C5CCNCC5)c4)cnc3N)oc2c1` it is 800 nM; for `CC(O)c1ccc2nc(-c3cc(-c4cnn(C5CCNCC5)c4)cnc3N)oc2c1` (stereo not drawn) it is 130 nM.
Still for that read-out and setting: the figure for `Nc1ncc(-c2cnn(C3CCNCC3)c2)cc1-c1nc2ccc(-c3cccnc3)cc2o1` is 28 nM; for `Nc1ncc(-c2cnn(C3CCNCC3)c2)cc1-c1nc2ccc(-c3cc[nH]n3)cc2o1` it is 210 nM.
Compound `Nc1ncc(-c2cnn(C3CCNCC3)c2)cc1-c1nc2cccc(-c3ccccn3)c2o1` yielded an IC50 in experiment [2] of 240 nM.
On to `COc1ccc(-c2cccc3nc(-c4cc(-c5cnn(C6CCNCC6)c5)cnc4N)oc23)cc1`, for which the IC50 in experiment [1] amounted to 77 nM.
Regarding `CC(C)Nc1cccc2nc(-c3cc(-c4cnn(C5CCNCC5)c4)cnc3N)oc12`, the IC50 in experiment [1] was 130 nM.
Still for that read-out and setting: the figure for `CNc1ccc2oc(-c3cc(-c4cnn(C5CCNCC5)c4)cnc3N)nc2c1` is 160 nM; for `CC(=O)Nc1ccc2oc(-c3cc(-c4cnn(C5CCNCC5)c4)cnc3N)nc2c1` [listing 1 of 2 here] it is 540 nM.
On the same count and under the same terms, the figure for `CCCNc1ccc2nc(-c3cc(-c4cnn(C5CCNCC5)c4)cnc3N)oc2c1` is 150 nM.
Consider `Nc1ncc(-c2cnn(C3CCNCC3)c2)cc1-c1nc2ccc(Nc3ncccn3)cc2o1`, for which, in experiment [1], the IC50 stood at 63 nM.
The same measure, in the same setting: the figure for `Nc1ncc(-c2cnn(C3CCNCC3)c2)cc1-c1nc2ccc(Oc3ccncn3)cc2o1` is 34 nM; for `Nc1ncc(-c2cnn(C3CCNCC3)c2)cc1-c1nc2ccc(Oc3ncccn3)cc2o1` it is 23 nM.
Still for that read-out and setting: the figure for `Nc1ncc(-c2cnn(C3CCNCC3)c2)cc1-c1nc2cc(O)ccc2o1` is 22 nM.
For the compound `Nc1ncc(-c2cnn(C3CCNCC3)c2)cc1-c1nc2ccc(O)cc2o1`, the IC50 in experiment [3] was determined as 90 nM; in experiment [4], 0.3 nM; in experiment [2], 450 nM; in experiment [5], 4 nM; in experiment [1], 19 nM; in experiment [6], 14 nM.
Turning to `Nc1ncc(-c2cnn(C3CCNCC3)c2)cc1-c1nc2cccc(O)c2o1`, the IC50 in experiment [1] stood at 110 nM.
Consider `Cc1cc2oc(-c3cc(-c4cnn(C5CCNCC5)c4)cnc3N)nc2cc1O`, for which, in experiment [2], 12 nM corresponded to half-maximal inhibition (IC50).
As to `Cc1cc2oc(-c3cc(-c4cnn(C5CCNCC5)c4)cnc3N)nc2c(C)c1O`, in experiment [1], the IC50 came out at 3 nM.
In experiment [2], `CCc1cc2oc(-c3cc(-c4cnn(C5CCNCC5)c4)cnc3N)nc2cc1O` yielded an IC50 of 22 nM.
Consider `Cc1cc2nc(-c3cc(-c4cnn(C5CCNCC5)c4)cnc3N)oc2cc1O`, for which, in experiment [1], the IC50 amounted to 180 nM.
As to `Cc1c(O)ccc2nc(-c3cc(-c4cnn(C5CCNCC5)c4)cnc3N)oc12`, the figures for the IC50 in experiment [2], in experiment [5] and in experiment [1] were 35 nM, 34 nM and 0.2 nM, respectively.
Consider `Nc1ncc(-c2cnn(C3CCNCC3)c2)cc1-c1nc2ccc(O)c(-c3cccnc3)c2o1`, for which the IC50 in experiment [1] is 4 nM.
For `Nc1ncc(-c2cnn(C3CCNCC3)c2)cc1-c1nc2ccc(O)c(-c3cnccn3)c2o1`, in experiment [2], the IC50 was found to be 180 nM.
Turning to `Nc1ncc(-c2cnn(C3CCNCC3)c2)cc1-c1nc2ccc(O)c(-c3ccccc3)c2o1`, the IC50 in experiment [2] was found to be 10 nM; in experiment [5], 14 nM; in experiment [1], 48 nM.
`Nc1ccc2oc(-c3cc(-c4cnn(C5CCNCC5)c4)cnc3N)nc2c1`: the IC50 in experiment [1] worked out at 56 nM.
In the case of `Nc1ccc2nc(-c3cc(-c4cnn(C5CCNCC5)c4)cnc3N)oc2c1`, the IC50 in experiment [2] came out at 3700 nM; in experiment [5], 3.6 nM; in experiment [1], 14 nM.
Consider `Nc1ncc(-c2cnn(C3CCNCC3)c2)cc1-c1nc2ccc(NC(=O)Nc3ccccc3)cc2o1`, for which the IC50 in experiment [1] amounted to 130 nM.
As to `CS(=O)(=O)Nc1ccc2nc(-c3cc(-c4cnn(C5CCNCC5)c4)cnc3N)oc2c1`, the IC50 in experiment [1] was determined as 88 nM.
Same read-out and setting: the figure for `Nc1ncc(-c2cnn(C3CCNCC3)c2)cc1-c1nc2ccc(NS(=O)(=O)c3ccc(F)cc3)cc2o1` is 67 nM; for `Nc1ncc(-c2cnn(C3CCNCC3)c2)cc1-c1nc2ccc(Nc3ccc(F)cc3)cc2o1` it is 410 nM; for `Cc1ccc(S(=O)(=O)NC(=O)Nc2ccc3nc(-c4cc(-c5cnn(C6CCNCC6)c5)cnc4N)oc3c2)cc1` it is 45 nM.
Same read-out and setting: the figure for `Cn1cc(-c2cnc(N)c(-c3nc4ccc(Cl)cc4o3)c2)cn1` is 1700 nM; for `CN1CCC(n2cc(-c3cnc(N)c(-c4nc5ccc(F)cc5o4)c3)cn2)CC1` it is 240 nM.
On the same count and under the same terms, the figure for `Nc1ncc(-c2cnn(C3CCN(CCO)CC3)c2)cc1-c1nc2ccc(F)cc2o1` is 90 nM; for `CC(=O)N1CCC(n2cc(-c3cnc(N)c(-c4nc5ccc(Cl)cc5o4)c3)cn2)CC1` it is 220 nM.
Take `CC(=O)N1CCC(n2cc(-c3cnc(N)c(-c4nc5cc(O)c(C)cc5o4)c3)cn2)CC1`: the IC50 in experiment [1] was 51 nM.
The same measure, in the same setting: the figure for `CC(=O)N1CCC(n2cc(-c3cnc(N)c(-c4nc5c(C)c(O)c(C)cc5o4)c3)cn2)CC1` is 28 nM; for `Nc1ncc(-c2cnn(CCO)c2)cc1-c1nc2cccc(-c3ccccn3)c2o1` it is 53 nM.
Same read-out and setting: the figure for `Cn1cc(-c2cnc(N)c(-c3nc4cccc(-c5ccccn5)c4o3)c2)cn1` is 14 nM; for `CC(=O)Nc1ccc2oc(-c3cc(-c4cnn(C5CCNCC5)c4)cnc3N)nc2c1` [listing 2 of 2 here] it is 540 nM.
